Test results from US8551991B2, “1,2,3,4-tetrahydroquinoxaline derivative having glucocorticoid receptor binding activity” (Santen Pharmaceutical Co., Ltd., priority 2006, dated 2013).

Biological target: T1, Recombinant human GR (Homo sapiens, UniProt P04150)
T1 construct: purchased Invitrogen P2816
T1 sequence (P04150 1-777): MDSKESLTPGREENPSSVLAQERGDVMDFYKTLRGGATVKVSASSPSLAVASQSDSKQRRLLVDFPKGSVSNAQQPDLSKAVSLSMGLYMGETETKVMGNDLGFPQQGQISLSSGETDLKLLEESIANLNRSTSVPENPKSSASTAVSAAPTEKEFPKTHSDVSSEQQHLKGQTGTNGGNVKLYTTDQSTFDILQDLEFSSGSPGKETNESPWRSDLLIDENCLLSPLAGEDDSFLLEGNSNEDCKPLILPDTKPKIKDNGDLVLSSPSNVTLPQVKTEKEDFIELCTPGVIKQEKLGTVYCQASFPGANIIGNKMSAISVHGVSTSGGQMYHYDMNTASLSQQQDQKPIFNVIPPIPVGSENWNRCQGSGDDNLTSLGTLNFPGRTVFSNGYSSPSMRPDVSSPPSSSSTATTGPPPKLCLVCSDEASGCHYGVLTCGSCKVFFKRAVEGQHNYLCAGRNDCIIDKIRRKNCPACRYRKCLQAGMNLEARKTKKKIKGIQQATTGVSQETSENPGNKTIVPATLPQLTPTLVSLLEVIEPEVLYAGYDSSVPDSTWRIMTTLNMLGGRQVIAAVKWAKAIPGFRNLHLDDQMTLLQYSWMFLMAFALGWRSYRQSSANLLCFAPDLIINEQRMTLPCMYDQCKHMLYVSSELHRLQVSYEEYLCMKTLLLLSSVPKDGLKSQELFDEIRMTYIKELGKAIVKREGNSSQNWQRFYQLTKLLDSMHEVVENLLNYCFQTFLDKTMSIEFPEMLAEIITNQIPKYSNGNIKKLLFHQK
Assay: GR competitor assay by fluorescence polarization (binding activity to glucocorticoid receptor)
Details: 20 μM test compound solution, 25 μL per well plus 12.5 μL each of 4×GS1 and 4×GR solution; Fluormone GS1 ligand; positive control 2 mM dexamethasone; read-out: GR Binding ratio (%)
Description: 1. Evaluation Test for Binding Activity to Glucocorticoid Receptor (Hereinafter Referred to as “GR”)
In order to evaluate a binding activity to GR, a receptor competitor assay was carried out by a fluorescence polarization method. In the assay, a GR competitor assay kit (manufactured by Invitrogen, cat No. P2816) was used, and a procedure was carried out according to the protocol attached to the kit. Hereinafter, the specific method will be described.
GR screening buffer: A buffer containing 10 mM potassium phosphate (pH 7.4), 20 mM sodium molybdate (Na2MoO4), 0.1 mM ethylene diamine tetraacetic acid (EDTA), 5 mM dithiothreitol (DTT), 0.1 mM stabilizing peptide and 2% dimethylsulfoxide was prepared.
4×GS1 solution: Fluormone™ GS1, which is a fluorescent glucocorticoid ligand, was diluted with GR screening buffer, whereby a 4 nM solution was prepared.
4×GR solution: Recombinant human GR was diluted with GR screening buffer, whereby a 16 nM solution was prepared.
After a test compound was dissolved in dimethylsulfoxide, the resulting solution was diluted with GR screening buffer, whereby a 20 μM test compound solution was prepared.
1) The test compound solution was added in an amount of 25 μL into each well of a 96-well plate, and then, 4×GS1 solution and 4×GR solution were added in an amount of 12.5 μL into each well, respectively.
2) The plate was incubated in a dark place at room temperature for 2 to 4 hours.
3) By using a multimode plate reader, Analyst™ HT (manufactured by LJL Biosystems), fluorescence polarization of each well was measured. As the blank, a well containing GR screening buffer in place of the test compound and 4×GS1 solution was used.
4) The same procedure as that in the above 1) to 3) was carried out except that GR screening buffer was used in place of the test compound solution, and the obtained result was taken as the negative control.
5) The same procedure as that in the above 1) to 3) was carried out except that 2 mM dexamethasone was used in place of the test compound solution, and the obtained result was taken as the positive control.
A GR binding ratio (%) was calculated from the following equation.
GR binding ratio (%)=100×[1-(fluorescence polarization of test compound solution-fluorescence polarization of positive control solution)/(fluorescence polarization of negative control solution—fluorescence polarization of positive control solution)]

SMILES	inhibition at 10 µM
CCN1C(=O)C(C)(C)Nc2ccc(-c3cc(F)ccc3OC)c(COC(=O)c3ccc(C)cc3)c21 [Compound 5-18]	100%
COc1cc(OC(=O)N(C)C)ccc1-c1ccc2c(c1COc1cc(F)ccc1C)N(C)C(=O)C(C)(C)N2 [Compound 18-2, 7-(4-Dimethylaminocarbonyloxy-2-methoxyphenyl)-8-(5-fluoro-2-methylphenoxymethyl)-1,3,3-trimethyl-3,4-dihydro-1H-quinoxalin-2-one]	99%
COc1ccc(Cl)cc1-c1ccc2c(c1COc1cc(F)ccc1C)N(C)C(=O)C(C)(C)N2 [Compound 6-15]	100%
COc1ccc([N+](=O)[O-])cc1OCc1c(-c2ccc(OC(=O)c3ccccc3C)cc2OC)ccc2c1N(C)C(=O)C(C)(C)N2 [Compound 5-22]	99%
COc1cc(F)ccc1-c1ccc2c(c1COc1cc([N+](=O)[O-])ccc1C)N(C)C(=O)C(C)(C)N2 [Compound 3-7]	100%
COc1ccc(C(=O)OCc2c(-c3ccc(OC(=O)c4ccccc4C)cc3OC)ccc3c2NC(=O)C(C)(C)N3)cc1 [Compound 1-4, 7-[2-Methoxy-4-(2-methylbenzoyloxy)phenyl]-8-(4-methoxybenzoyloxymethyl)-3,3-dimethyl-3,4-dihydro-1H-quinoxalin-2-one]	91%
COc1cc(NC(=O)Oc2ccccc2)ccc1-c1ccc2c(c1COc1cc(F)ccc1C)N(C)C(=O)C(C)(C)N2 [Compound 14-37]	93%
COc1ccc(C(=O)OCc2c(-c3ccc(OC(=O)c4ccccc4C)cc3OC)ccc3c2N(C)C(=O)C(C)(C)N3)cc1 [Compound 5-21]	100%
COc1ccccc1-c1ccc2c(c1COc1cc(F)ccc1C)N(C)C(=O)C(C)(C)N2 [Compound 6-8]	98%
COc1ccc(Cl)cc1-c1ccc2c(c1COc1ccccc1CCO)N(C)C(=O)C(C)(C)N2 [Compound 3-10]	100%
COc1ccccc1NCc1c(-c2ccc(F)cc2OC)ccc2c1N(C)C(=O)C(C)(C)N2 [Compound 4-11]	100%
COc1cccc(F)c1-c1ccc2c(c1COc1cc(F)ccc1C)N(C)C(=O)C(C)(C)N2 [Compound 6-23]	98%
COc1ccc(C(F)(F)F)cc1-c1ccc2c(c1COc1cc(F)ccc1C)N(C)C(=O)C(C)(C)N2 [Compound 6-19]	100%
COc1ccc([N+](=O)[O-])cc1OCc1c(-c2ccc(OC(=O)c3ccccc3C)cc2OC)ccc2c1NC(=O)C(C)(C)N2 [Compound 22, 7-[2-Methoxy-4-(2-methylbenzoyloxy)phenyl]-8-(2-methoxy-5-nitrophenoxymethyl)-3,3-dimethyl-3,4-dihydro-1H-quinoxalin-2-one]	100%
COc1ccc(F)cc1-c1ccc2c(c1CNc1ccccc1)N(C)C(=O)C(C)(C)N2 [Compound 5-14]	100%
COc1ccc(F)cc1-c1ccc2c(c1COC(=O)c1ccccc1)N(C)C(=O)C(C)(C)N2 [Compound 5-1, 8-Benzoyloxymethyl7-(5-fluoro-2-methoxyphenyl)-1,3,3-trimethyl-3,4-dihydro-1H-quinoxalin-2-one]	100%
COc1cc(OC(=O)Nc2ccccc2)ccc1-c1ccc2c(c1COC(=O)c1ccc(C)s1)N(C)C(=O)C(C)(C)N2 [Compound 17-16, 7-(2-Methoxy-4-phenylaminocarbonyloxyphenyl)-8-(5-methylthiophen-2-ylcarbonyloxymethyl)-1,3,3-trimethyl-3,4-dihydro-1H-quinoxalin-2-one]	88%
COc1ccc([N+](=O)[O-])cc1OCc1c(-c2ccc(F)cc2OC)ccc2c1N(C)C(=O)C(C)(C)N2 [Compound 3-16]	100%
CSc1ccccc1-c1ccc2c(c1COc1cc(F)ccc1C)N(C)C(=O)C(C)(C)N2 [Compound 6-10]	100%

Other lines, results leading:

inhibition at 10 µM	SMILES
94%	COc1ccccc1NCc1c(-c2ccc(OC(=O)c3cscn3)cc2OC)ccc2c1N(C)C(=O)C(C)(C)N2 [Compound 21-13, 8-(2-Methoxyphenylaminomethyl)-7-[2-methoxy-4-(thiazol-4-ylcarbonyloxy)phenyl]-1,3,3-trimethyl-3,4-dihydro-1H-quinoxalin-2-one]
100%	COc1cc(OC(=O)c2ccccc2Cl)ccc1-c1ccc2c(c1COc1cc(F)ccc1C)N(C)C(=O)C(C)(C)N2 [Compound 14-4]
100%	COc1cc(OC(=O)c2ccccc2C)ccc1-c1ccc2c(c1COc1cc(F)ccc1C)N(C)C(=O)C(C)(C)N2 [Compound 14-2]
100%	COc1cc(OC(=O)c2ccoc2)ccc1-c1ccc2c(c1COc1cc(F)ccc1C)N(C)C(=O)C(C)(C)N2 [Compound 14-11]
91%	COc1cc(O)ccc1-c1ccc2c(c1COC(=O)c1ccc(C)s1)N(C)C(=O)C(C)(C)N2 [Compound 13-2, 7-(4-Hydroxy-2-methoxyphenyl)-8-(5-methylthiophen-2-ylcarbonyloxymethyl)-1,3,3-trimethyl-3,4-dihydro-1H-quinoxalin-2-one]
100%	COc1cc(OC(=O)c2ccccc2C)ccc1-c1ccc2c(c1CNc1cc(F)ccc1C)N(C)C(=O)C(C)(C)N2 [Compound 21-22, 8-(5-Fluoro-2-methylphenylaminomethyl)-7-[2-methoxy-4-(2-methylbenzoyloxy)phenyl]-1,3,3-trimethyl-3,4-dihydro-1H-quinoxalin-2-one]
93%	COC(=O)Oc1ccc(-c2ccc3c(c2COc2cc(F)ccc2C)N(C)C(=O)C(C)(C)N3)c(OC)c1 [Compound 14-35]
100%	COc1cc(OC(=O)c2cccnc2C)ccc1-c1ccc2c(c1COc1cc(F)ccc1C)N(C)C(=O)C(C)(C)N2 [Compound 15-2]
88%	COc1cc(OC(=O)Oc2ccccc2)ccc1-c1ccc2c(c1COc1cc(F)ccc1C)N(C)C(=O)C(C)(C)N2 [Compound 14-36]
98%	COc1cc(OC(=O)c2ccccc2OC(C)=O)ccc1-c1ccc2c(c1COc1cc(F)ccc1C)N(C)C(=O)C(C)(C)N2 [Compound 15-4]
95%	COc1cc(OC(=O)c2sccc2Cl)ccc1-c1ccc2c(c1COc1cc(F)ccc1C)N(C)C(=O)C(C)(C)N2 [Compound 15-17]
100%	COc1ccccc1NCc1c(-c2ccc(OC(=O)c3cccnc3C)cc2OC)ccc2c1N(C)C(=O)C(C)(C)N2 [Compound 21-12, 7-[2-Methoxy-4-(2-methylpyridin-3-ylcarbonyloxy)phenyl]-8-(2-methoxyphenylaminomethyl)-1,3,3-trimethyl-3,4-dihydro-1H-quinoxalin-2-one]
100%	COc1cc(OC(=O)c2ccccc2SC)ccc1-c1ccc2c(c1COc1cc(F)ccc1C)N(C)C(=O)C(C)(C)N2 [Compound 15-6]
